Converted amounts (≈) assume the structure as drawn.
Legend:
Format in all cases: physicochemical
[1] = Solid state stability under stress conditions (XRPD, HPLC); details: for XRPD pattern after stress storage: closed vial about 60° C., closed vial about 40° C./75% RH, 1 week and 2 weeks
Method: Form 1. Form 2, Form 6, Form 8, and Form 11 were each placed under following stress conditions: (1) in a closed vial at a temperature of about 60° C., and (2) in a closed vial at a temperature of about 40′° C. and a humidity of about 75% RH. The solids were analyzed with XRPD at 1 week and 2 weeks intervals.
Additionally, all forms were analyzed with HPLC for impurity at the 1 week and 2 weeks intervals. In a typical analysis, about 5 mg of forms were each dissolved in 10 ml of diluents with the aid of sonication for 2 minutes. THF was used as the diluent for Form 1, and methanol was used as the diluent for Form 6, Form 8, and Form 11. The HPLC analysis utilized Agilent Eclipse XDB-C18 4.6*150 mm. 3.5 μm at 30° C., a mobile phase of a gradient between 0.1% H3PO4 and acetonitrile (9:1 to 2:8 to 9:1), an injection volume of 10 μl, a flow rate of 1.0 ml/min, and a detection wavelength of 214 nm.
Form 2 was further subject to the stability test in an open vial at 40° C. and a relative humidity of 75% RH.

Heating study of Form 1 = details: 110° C. about 10 minutes / 100° C. 20 minutes
Method: About 150 mg of Form 1 was heated to 110° C. and maintained for about 10 minutes. The sample color changed from light yellow to dark yellow. The darker sample was evaluated with XRPD. The sample color changed back to light yellow at the conclusion of the XRPD evaluation, which was similar to the color before the heating treatment. […] Another sample of Form 1 was heated in an oven at 100° C. for 20 minutes and subsequently analyzed for the moisture content using KF method. The moisture content of heated Form 1 was 6.8%. […] The product is unstable and will rapidly absorb water.

[2] = Visual solubility of Form 1 in common solvents; details: thermodynamic from solid
Method: Solubility of Form 1 was tested visually. About 5 mg of Form I was accurately weighed into a glass vial of 5 ml. Small amounts of solvent was added gradually into the vial until the compound was dissolved or when the total amount added reached 5 ml. The cumulative volume of the solvent was recorded.

[3] = Long-term stability of Compound I Form 2 (XRPD)
Method: The stability of Compound I Form 2 was analyzed by the following two experiments.
Experiment A: The following is an X-ray Powder Diffraction Analytical method used to obtain the data shown in FIG. 43 and FIG. 44, and which complies with ChP<0451>/USP/NF<941>/EP10.6 2.9.33. Standard XRPD patterns were collected using a Bruker D8 Advance diffractometer or equivalent instrument.
Parameters for collecting the XRPD shown in FIG. 43 and FIG. 44 is as follows:
The XRPD patterns shown in FIG. 45 and FIG. 46 were collected using a Bruker D2 Phaser X-ray diffractometer. Detector: PSD LynxEye; Sample holder: Zero background sample holder or equivalent; Software: DIFFRAC. Measurement Center, Version V6.5.0 or equivalent; Diffractometer Settings: Diffractometer type: 02 phaser; Goniometer Type: Theta/Theta; Sample Stage: Standard rotating stage; Goniometer Diameter: 282.2 mm; Divergence slit: 1.0 mm; Primary seller slit: 2.5°; Secondary seller slit: 2.5°; Airscatter screen module: 1.0 mm; Tube Element: Cu; Tube parameters: voltage 30 kV; current 10 mA; Scan Parameters: SSD160: Locked coupled; SSD160-2: coupled Two Theta/Theta Scan Type: SSD160: Locked coupled; SSD160-2: coupled Two Theta/Theta; Continuous PSD fast Scan Mode: Continuous PSD fast scan; Rotation Speed: 20 rpm; Start: 3° ˜40° (2 0); Scan Step: 0.02° (2 0); Scan Speed: 0.2s/step; Detector opening: 4.5°; Sample Analysis; Test the sample with the Diffractometer Settings and Scan Parameters. The powder X-ray diffraction pattern of the sample was recorded and calculations were performed according to Bruker D2 Phaser X-ray Diffractometer User Manual V6-Identification of Crystal Form by X-Ray Powder Diffraction (XRPD)-Bruker D2 Phaser.

## CCc1nc2ccccn2c1C(=O)c1cc(Br)c(O)c(C#N)c1 [Form 1, 3-bromo-5-[(2-ethylimidazo[1,2-a]pyridin-3-yl)carbonyl]-2-hydroxybenzonitrile]
[1]
  XRPD pattern after stress storage: substantially similar to those received at the initial time
Heating study of Form 1
  Behaviour upon heating: may lose water upon heating
[2]; acetone, organic solvent or mixture
  Solubility: < 1000 µg/mL
[2]; acetone:water 3:1, organic solvent or mixture, Acetone:water = 3:1
  Solubility: < 1000 µg/mL
[2]; acetonitrile (ACN), organic solvent or mixture
  Solubility: < 1000 µg/mL
[2]; dichloromethane (DCM), organic solvent or mixture
  Solubility: < 1000 µg/mL
[2]; dimethylformamide (DMF), organic solvent or mixture
  Solubility: > 25000 µg/mL
[2]; dimethylsulfoxide (DMSO), organic solvent or mixture
  Solubility: > 25000 µg/mL
[2]; ethanol, organic solvent or mixture, Ethanol (EtOH)
  Solubility: < 1000 µg/mL
[2]; ethyl acetate, organic solvent or mixture, Ethyl acetate (EtAc)
  Solubility: < 1000 µg/mL
[2]; heptane, organic solvent or mixture
  Solubility: < 1000 µg/mL
[2]; isopropyl alcohol, organic solvent or mixture
  Solubility: < 1000 µg/mL
[2]; methanol, organic solvent or mixture, Methanol (MeOH)
  Solubility: < 1000 µg/mL
[2]; methanol:water 3:1, organic solvent or mixture, Methanol:water = 3:1
  Solubility: < 1000 µg/mL
[2]; methyl ethyl ketone (MEK), organic solvent or mixture
  Solubility: < 1000 µg/mL
[2]; tetrahydrofuran (THF), organic solvent or mixture
  Solubility: ~3000 µg/mL (≈ 8100 µM)
[2]; toluene, organic solvent or mixture
  Solubility: < 1000 µg/mL
[2]; water, Water (H2O)
  Solubility: < 1000 µg/mL

## CCc1nc2ccccn2c1C(=O)c1cc(Br)c(O)c(C#N)c1 [Form 2, 3-bromo-5-[(2-ethylimidazo[1,2-a]pyridin-3-yl)carbonyl]-2-hydroxybenzonitrile]
[3]; Experiment A, 25° C.±2° C./60% RH±5% RH
  Period over which the form remains stable (XRPD): at least 12 months
[3]; Experiment A, 40° C.±2° C./75% RH±5% RH
  Period over which the form remains stable (XRPD): at least 6 months
[3]; Experiment B, 25° C.±2° C./60% RH±5% RH
  Period over which the form remains stable (XRPD): at least 48 months
[3]; Experiment B, 40° C.±2° C./75% RH±5% RH
  Period over which the form remains stable (XRPD): at least 6 months
[1]
  XRPD pattern after stress storage: substantially similar to those received at the initial time
[1]; open vial, 40° C., 75% RH
  XRPD after storage in an open vial: significant changes at the end of ninth day

Source: patent US20250368639A1, “SOLID FORMS OF A COMPOUND FOR TREATING OR PREVENTING HYPERURICEMIA OR GOUT” (ATOM THERAPEUTICS CO., LTD, priority 2022, published 2025)
